Here are results for one compound from US20230310432A1 (JULIUS-MAXIMILIANS-UNIVERSITÄT WÜRZBURG, priority 2017, published 2023).

The test system of assay [1] is CD19 CAR/4-1BB-T cells; Raji tumor cells. The assay can be described thus: Flow cytometry of tumor cells and human CAR-T cells in bone marrow and spleen, intermittent dasatinib. The class given is in vivo, NSG mice. The settings on record: day 15. As to the method:
The Institutional Animal Care and Use Committee of UKW approved all mouse experiments. NOD.Cg-Prkdc^scidIl2rg^tm1wjl/SzJ (NSG) mice (female, 6-8 week old) were purchased from Charles River (Sulzfeld, Germany). Mice were inoculated with 1×10^6 Raji/ffluc_GFP tumor cells via tail vein injection (i.v.). Mice were treated with 5×10^6 CAR-modified or control untransduced T-cells (CD4:CD8 ratio=1:1) via tail vein injection (i.v.). […] Tumor burden and distribution was analyzed by serial bioluminescence imaging on an IVIS Lumina imager (Perkin Elmer, Baesweiler, Germany): mice received i.p. injections of 0.3 mg/g luciferin and images were acquired 10 minutes after luciferin injection in small binning mode at an acquisition time of 1 s to 1 min to obtain unsaturated images. Data were analyzed using LivingImage Software (Caliper) and the average radiance (or photon flux) analyzed in regions of interest that encompassed the entire body of each individual mouse. Mice were sacrificed at the end of the experiment and human T cells in bone marrow, peripheral blood and spleen were analyzed by flow cytometry. The presence of (human) cytokines in serum was measured using multiplex cytokine analysis.
In brief, cohorts of 1-12 mice were inoculated with 1×10^6 firefly-luciferase_GFP-transduced Raji tumor cells on day 0. […] Serial bioluminescence imaging was performed to determine tumor burden on day 7, 9 and 15.
On day 15, mice were sacrificed and peripheral blood (PB), bone marrow (BM) and spleen (SP) analyzed for the presence of human CAR-T cells by flow cytometry.
Background: In flow cytometry, cells or beads pass a laser one at a time.

Assay [2] deals with CD8+ T cells expressing a CD19 CAR with 4-1BB costimulation. The assay can be described thus: Bioluminescence-based cytotoxicity assay, K562/CD19 target cells. The class given is cell-based, human. How it is done:
Cytotoxicity: Target cells were stably transduced with ffluc_GFP and incubated in triplicate wells at 1×10^4 cells/well with effector T cells at an effector to target (E:T) ratio of 5:1. D-luciferin substrate (Biosynth, Staad, Switzerland) was added to the co-culture to a final concentration of 0.15 mg/ml and the decrease in luminescence signal in wells that contained target cells and T-cells was measured using a luminometer (Tecan, Mannedorf, Switzerland). Specific lysis was calculated using the standard formula.
The inventors prepared CD8+ CAR-T cell lines from n=3 healthy donors. In each of the T-cell lines, the inventors enriched CAR-expressing T cells to >90% purity using the EGFRt-transduction marker. The inventors analyzed cytolytic activity of CD8^+ CAR-T cells in a bioluminescence-based cytotoxicity assay using K562 that the inventors had transduced with either CD19 (for testing CD19 CAR-T cells) or ROR1 (for testing ROR1 CAR-T cells) as target cells. Dasatinib was added to the assay medium at the beginning of the assay.
The inventors prepared CD8^+ CAR-T cell lines from n=3 healthy donors. In each of the T-cell lines, the inventors enriched CAR-expressing T cells to >90% purity using the EGFRt-transduction marker. The inventors analyzed cytolytic activity of CD8^+ CAR-T cells in a bioluminescence-based cytotoxicity assay using K562 target cells that the inventors had transduced with CD19.
The CAR-T cell cytolytic activity was analyzed at 1-hour intervals for 10 hours.
The inventors analyzed cytolytic activity of CD8+ CAR-T cells in a bioluminescence-based cytotoxicity assay.
The inventors prepared CD8^+ CD19 CAR-T cell lines with a 4-1BB costimulatory domain from one healthy donor. In the T-cell line, the inventors enriched CAR expressing T cells to >90% purity using the EGFRt-transduction marker. The inventors analyzed cytolytic activity of CD8^+ CAR-T cells in a 4-hour bioluminescence-based cytotoxicity assay using K562 that the inventors had transduced with CD19 as target cells to assess the influence of a panel of Src-kinase inhibitors on the cytolytic function of CAR-T cells. Src-kinase inhibitors were added to the assay medium at the beginning of the assay over a 4-log concentration range.

Assay [3] concerns CAR CD3 zeta at tyrosine 142. The assay can be described thus: Quantitative Western blot of phosphorylation in CD8+ CD19 CAR/4-1BB T cells. The class given is cell-based, human. To be noted: 100 nM dasatinib; co-culture with RCH-ACV. A general note: In western blotting, separated proteins are transferred to a membrane and probed.

On to `Cc1nc(Nc2ncc(C(=O)Nc3c(C)cccc3Cl)s2)cc(N2CCN(CCO)CC2)n1` [dasatinib], for which, in assay [1] (intermittent dasatinib, 1.9% without), the “percentage of human CAR-T cells, bone marrow” value came out at 7.3%. Also, the “percentage of human CAR-T cells, spleen” value in assay [1] (intermittent dasatinib, 3.2% without) is 6.9%. Besides, the “remaining tumor burden, of all living cells in the bone marrow” value in assay [1] (one exemplary mouse, CAR-T cells and intermittent dasatinib, 58.8% CAR-T cells only) is reported as 0.22%. This compound also came in with a specific lysis in assay [2] (0.1 μM dasatinib at the beginning of the assay, t=10 h) of less than 1%. In addition, the “specific lysis of target cells” value in assay [2] (dasatinib 25 nM, t=6 h, 53% by non-dasatinib treated) is given as 26%; in assay [2] (dasatinib 25 nM, t=12 h, 93% by non-dasatinib treated) it was 73%; in assay [2] (dasatinib 100 nM for 2 hours, then removed, at 10 hours), greater than 95%; in assay [2] (dasatinib 100 nM for 2 hours, then removed, at +4 hours), 77%; in assay [2] (dasatinib ≤12.5 nM, t=12 h, 93% by non-dasatinib treated CAR-T cells) it was greater than 88%; in assay [2] (dasatinib ≥50 nM, t=12 h, 93% by non-dasatinib treated), “less than 12%”. Moreover, the “specific lysis of target cells” value in assay [2] (dasatinib ≥50 nM, up to t=6 h) was “less than 7%”; in assay [2] (inhibitor 10 nM, 4-hour assay, 82% by untreated CAR-T cells), 16.1%. The “phosphorylation compared to CAR-T cells co-cultured in the absence of dasatinib” value in assay [3] came to 12.86%.
